Data from patent US20190358264A1, “METHODS OF TREATING DISEASES ASSOCIATED WITH ILC2 CELLS” (Limm Therapeutics, SA, priority 2016, published 2019).

What was measured:
Format in all cases: cell-based, mouse
ILC2s = assay: In vitro activation of purified ILC2s, type 2 cytokine protein by intracellular staining; details: purified ILC2s, Nmur1 competent vs deficient; NMUR1-dependent
Method: (§1) FIGS. 10a-10d: FIG. 10a, Ki67 expression in intestinal ILC2s after an overnight in vitro stimulation with NmU23 alone (100 ng/mL, Phoenix Pharmaceutical) or NmU23 together with the survival cytokines Interleukin (IL)-2 and/or IL-7 (10 ng/mL). FIG. 10b, Ki67 expression in intestine ILC2 after in vivo administration of NmU23 (4 g/day during 2 days). n=5. FIG. 10c, ILC2-derived type 2 cytokines (IL-5, IL-13 and Amphiregulin (Areg)) in sorted intestine ILC2 after an overnight stimulation with NmU23, mouse recombinant IL-25 or IL-33 (R&D) (10, 50 and 100 ng/mL). Negative control: unstimulated ILC2, Positive control: ILC2 activated with phorbol 12-myristate 13-acetate (PMA, 50 ng/ml) plus ionomycin (500 ng/ml). n=3. FIG. 10d, Dot plots representative of the cytokine production with increasing dose of NmU23, rIL-25 and rIL-33. *P<0.05; **P<0.01; ***P<0.001; ****P<0.0001; ns not significant.
For in vitro experiments, purified lung and small intestine lamina propria ILC2s were FBS starved for 2 hours prior to stimulation and cultured in complete RPMI (supplemented with 10% foetal bovine serum (FBS), 1% hepes, sodium pyruvate, glutamine, streptomycin and penicillin) at 37° C. For mRNA analysis, ILC2s were stimulated overnight with recombinant mouse Neuromedin U 23 peptide (NmU23, 100 ng/mL; Phoenix pharmaceuticals). Both NmU23-stimulated and control ILC2s were cultured in the presence of IL-2 and IL-7 (10 ng/mL; Peprotech). ILC2s were lysed using RLT buffer (Qiagen). For cytokine protein analysis, ILC2s were incubated exclusively with brefeldin A (eBioscience) for 12 hours prior to intracellular staining. For in vivo experiments, B6 mice were injected intraperitoneal with NmU23 peptide (2 g/day) during Nippostrongylus brasiliensis infection or with a single dose of NmU23 (20 μg) and analyzed after 8 hours. Control mice were treated with PBS alone.
Intracellular staining was performed using IC fixation/permeabilization kit (eBioscience). Flow cytometry analysis and cell sorting were performed using BD LSRFORTESSA and BD FACSAria flow cytometers (BD Biosciences). […]

Ca^2+ influx in ILC2s = assay: Calcium signaling (Fluo-4) in purified ILC2s; details: NmU23 added 60 seconds after baseline; small intestine ILC2s
Method: Purified ILC2s from the small intestine were cultured with IL-2 and IL-7 (10 ng/mL) and FBS deprived for 6 hours prior to calcium signaling experiments. ILC2s were stained with Fluo-4 Direct Calcium Assay Kit (Thermo Fisher Scientific) according to manufacturer's protocol. Calcium (Ca^2+) influx, represented by the Fluo-4 AM, was recorded over time on a BD Accuri C6 (BD Biosciences) flow cytometer as previously reported^36. The recombinant mouse NmU23 was added 60 seconds after ILC2 baseline recording. Data was represented by the mean values of Ca^2+ influx kinetics between the ILC2 baseline response and the peak of response after recombinant mouse NmU23 addition.

intestinal ILC2s = assay: Ki67 expression in intestinal ILC2s after in vitro stimulation with NmU23; details: NmU23 100 ng/mL overnight
Method: as §1
For in vitro experiments, purified lung and small intestine lamina propria ILC2s were FBS starved for 2 hours prior to stimulation and cultured in complete RPMI (supplemented with 10% foetal bovine serum (FBS), 1% hepes, sodium pyruvate, glutamine, streptomycin and penicillin) at 37° C. […] For in vivo experiments, B6 mice were injected intraperitoneal with NmU23 peptide (2 g/day) during Nippostrongylus brasiliensis infection or with a single dose of NmU23 (20 μg) and analyzed after 8 hours. […]

Question: “recombinant mouse Neuromedin U 23 peptide (FKAEYQSPSVGQSKGYFLFRPRN; listed as Mus musculus) [NmU23, NMUR1 agonist neuropeptide, Phoenix pharmaceuticals]” was tested. Which “expression of the type 2 cytokine proteins IL-5 and IL-13 in ILC2s” value (ILC2s) did it give?
Answer: The value was “potent expression”.

Question: What about the “Ca^2+ influx in ILC2s (Fluo-4 AM intensity)” value (Ca^2+ influx in ILC2s) of the same substance?
Answer: Its value is “immediate and robust Ca^2+ influx”.

Question: And the “ILC2 proliferation as measured by Ki67, in vitro” value (intestinal ILC2s)?
Answer: The value was “increased ILC2 proliferation”.
